Structures are written as SMILES.

For the test, the target named is human JAK1 (a.a. 837-1142). The test is described as follows: In vitro JAK kinase assay (HTRF, phosphorylation of a biotinylated peptide), JAK1. Type of test: biochemical. The following applies: measured at 1 mM ATP; JAK2 IC50 / JAK1 IC50. In short, it runs like this:
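Phosphorylation of a biotinylated peptide by purified His-tagged JAK catalytic domains (insect-cell baculovirus expression) ran 1 hr at room temperature. After stopping with EDTA, Eu-Py20 and SA-APC were bound for 40 minutes and HTRF measured.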
For `Cc1ccsc1C(=O)N1CCC(N2CC(CC#N)(n3cc(-c4ncnc5[nH]ccc45)cn3)C2)CC1` [Example 78, {1-{1-[(3-methyl-2-thienyl)carbonyl]piperidin-4-yl}-3-[4-(7H-pyrrolo[2,3-d]pyrimidin-4-yl)-1H-pyrazol-1-yl]azetidin-3-yl}acetonitrile], the “IC50 Ratio JAK2/JAK1” value was found to be 5.4.

Take `Cc1ccc(C(=O)N2CCC(N3CC(CC#N)(n4cc(-c5ncnc6[nH]ccc56)cn4)C3)CC2)s1` [Example 80, {1-{1-[(5-methyl-2-thienyl)carbonyl]piperidin-4-yl}-3-[4-(7H-pyrrolo[2,3-d]pyrimidin-4-yl)-1H-pyrazol-1-yl]azetidin-3-yl}acetonitrile]: the “IC50 Ratio JAK2/JAK1” value was determined as 4.1.

Turning to `COc1ccsc1C(=O)N1CCC(N2CC(CC#N)(n3cc(-c4ncnc5[nH]ccc45)cn3)C2)CC1` [Example 81, {1-{1-[(3-methoxy-2-thienyl)carbonyl]piperidin-4-yl}-3-[4-(7H-pyrrolo[2,3-d]pyrimidin-4-yl)-1H-pyrazol-1-yl]azetidin-3-yl}acetonitrile], the “IC50 Ratio JAK2/JAK1” value was determined as 4.2.

`N#CCC1(n2cc(-c3ncnc4[nH]ccc34)cn2)CN(C2CCN(C(=O)c3ccc(C(F)(F)F)cc3F)CC2)C1` [Example 82, {1-{1-[2-fluoro-4-(trifluoromethyl)benzoyl]piperidin-4-yl}-3-[4-(7H-pyrrolo[2,3-d]pyrimidin-4-yl)-1H-pyrazol-1-yl]azetidin-3-yl} acetonitrile]: the “IC50 Ratio JAK2/JAK1” value amounted to 5.3.

Regarding `N#CCC1(n2cc(-c3ncnc4[nH]ccc34)cn2)CN(C2CCN(C(=O)c3c(F)cc(C#N)cc3F)CC2)C1` [Example 83, 4-[(4-{3-(cyanomethyl)-3-[4-(7H-pyrrolo[2,3-d]pyrimidin-4-yl)-1H-pyrazol-1-yl]azetidin-1-yl}piperidin-1-yl)carbonyl]-3,5-difluorobenzonitrile], the “IC50 Ratio JAK2/JAK1” value is 5.8.

For `N#CCC1(n2cc(-c3ncnc4[nH]ccc34)cn2)CN(C2CCN(C(=O)c3ccc(O)c(Cl)c3)CC2)C1` [Example 84, {1-[1-(3-chloro-4-hydroxybenzoyl)piperidin-4-yl]-3-[4-(7H-pyrrolo[2,3-d]pyrimidin-4-yl)-1H-pyrazol-1-yl]azetidin-3-yl}acetonitrile], the “IC50 Ratio JAK2/JAK1” value is recorded as 6.5.

Take `N#CCC1(n2cc(-c3ncnc4[nH]ccc34)cn2)CN(C2CCN(C(=O)c3cccc4ccccc34)CC2)C1` [Example 87, {1-[1-(1-naphthoyl)piperidin-4-yl]-3-[4-(7H-pyrrolo[2,3-d]pyrimidin-4-yl)-1H-pyrazol-1-yl]azetidin-3-yl}acetonitrile]: the “IC50 Ratio JAK2/JAK1” value was found to be 0.3.

As to `N#CCC1(n2cc(-c3ncnc4[nH]ccc34)cn2)CN(C2CCN(C(=O)c3cnc4ccccc4c3)CC2)C1` [Example 88, {3-[4-(7H-pyrrolo[2,3-d]pyrimidin-4-yl)-1H-pyrazol-1-yl]-1-[1-(quinolin-3-ylcarbonyl)piperidin-4-yl]azetidin-3-yl}acetonitrile], the “IC50 Ratio JAK2/JAK1” value was found to be 0.9.

Consider `N#CCC1(n2cc(-c3ncnc4[nH]ccc34)cn2)CN(C2CCN(C(=O)c3ccc4ncccc4c3)CC2)C1` [Example 89, {3-[4-(7H-pyrrolo[2,3-d]pyrimidin-4-yl)-1H-pyrazol-1-yl]-1-[1-(quinolin-6-ylcarbonyl)piperidin-4-yl]azetidin-3-yl}acetonitrile], for which the “IC50 Ratio JAK2/JAK1” value amounted to 2.6.

Consider `N#CCC1(n2cc(-c3ncnc4[nH]ccc34)cn2)CN(C2CCN(C(=O)c3cc4ccccc4s3)CC2)C1` [Example 90, {1-[1-(1-benzothien-2-ylcarbonyl)piperidin-4-yl]-3-[4-(7H-pyrrolo[2,3-d]pyrimidin-4-yl)-1H-pyrazol-1-yl]azetidin-3-yl}acetonitrile], for which the “IC50 Ratio JAK2/JAK1” value is on record as 1.5.

Regarding `N#CCC1(n2cc(-c3ncnc4[nH]ccc34)cn2)CN(C2CCN(C(=O)c3sc4cc(F)ccc4c3Cl)CC2)C1` [Example 91, {1-{1-[(3-chloro-6-fluoro-1-benzothien-2-yl)carbonyl]piperidin-4-yl}-3-[4-(7H-pyrrolo[2,3-d]pyrimidin-4-yl)-1H-pyrazol-1-yl]azetidin-3-yl}acetonitrile], the “IC50 Ratio JAK2/JAK1” value is given as 1.7.

Consider `N#CCC1(n2cc(-c3ncnc4[nH]ccc34)cn2)CN(C2CCN(C(=O)c3sc4cccc(F)c4c3Cl)CC2)C1` [Example 92, {1-{1-[(3-chloro-4-fluoro-1-benzothien-2-yl)carbonyl]piperidin-4-yl}-3-[4-(7H-pyrrolo[2,3-d]pyrimidin-4-yl)-1H-pyrazol-1-yl]azetidin-3-yl}acetonitrile], for which the “IC50 Ratio JAK2/JAK1” value is 2.8.

Take `N#CCC1(n2cc(-c3ncnc4[nH]ccc34)cn2)CN(C2CCN(C(=O)c3cc4c(C(F)(F)F)cccc4s3)CC2)C1` [Example 93, [3-[4-(7H-pyrrolo[2,3-d]pyrimidin-4-yl)-1H-pyrazol-1-yl]-1-(1-{[4-(trifluoromethyl)-1-benzothien-2-yl]carbonyl}piperidin-4-yl)azetidin-3-yl]acetonitrile]: the “IC50 Ratio JAK2/JAK1” value was found to be 1.5.

With `N#CCC1(n2cc(-c3ncnc4[nH]ccc34)cn2)CN(C2CCN(C(=O)c3cc4ccc(C(F)(F)F)cc4s3)CC2)C1` [Example 94, [3-[4-(7H-pyrrolo[2,3-d]pyrimidin-4-yl)-1H-pyrazol-1-yl]-1-(1-{[6-(trifluoromethyl)-1-benzothien-2-yl]carbonyl}piperidin-4-yl)azetidin-3-yl]acetonitrile], the “IC50 Ratio JAK2/JAK1” value is listed as 1.0.

Regarding `N#CCC1(n2cc(-c3ncnc4[nH]ccc34)cn2)CN(C2CCN(C(=O)c3cc4cccc(C(F)(F)F)c4s3)CC2)C1` [Example 95, [3-[4-(7H-pyrrolo[2,3-d]pyrimidin-4-yl)-1H-pyrazol-1-yl]-1-(1-{[7-(trifluoromethyl)-1-benzothien-2-yl]carbonyl}piperidin-4-yl)azetidin-3-yl]acetonitrile], the “IC50 Ratio JAK2/JAK1” value was 2.7.

With `N#CCC1(n2cc(-c3ncnc4[nH]ccc34)cn2)CN(C2CCN(C(=O)c3csc4ccccc34)CC2)C1` [Example 96, {1-[1-(1-benzothien-3-ylcarbonyl)piperidin-4-yl]-3-[4-(7H-pyrrolo[2,3-d]pyrimidin-4-yl)-1H-pyrazol-1-yl]azetidin-3-yl} acetonitrile], the “IC50 Ratio JAK2/JAK1” value worked out at 0.5.

For `N#CCC1(n2cc(-c3ncnc4[nH]ccc34)cn2)CN(C2CCN(C(=O)C3CCc4ccccc4C3)CC2)C1` (centres unmarked) [Example 97, {3-[4-(7H-pyrrolo[2,3-d]pyrimidin-4-yl)-1H-pyrazol-1-yl]-1-[1-(1,2,3,4-tetrahydronaphthalen-2-ylcarbonyl)piperidin-4-yl]azetidin-3-yl}acetonitrile], the “IC50 Ratio JAK2/JAK1” value was 2.2.

For the compound `N#CCC1(n2cc(-c3ncnc4[nH]ccc34)cn2)CN(C2CCN(C(=O)C3CCC(C(F)(F)F)CC3)CC2)C1` (centres unmarked) [Example 98, [3-[4-(7H-pyrrolo[2,3-d]pyrimidin-4-yl)-1H-pyrazol-1-yl]-1-(1-{[4-(trifluoromethyl)cyclohexyl]carbonyl}piperidin-4-yl)azetidin-3-yl] acetonitrile], the “IC50 Ratio JAK2/JAK1” value is reported as 3.7.

For the compound `N#CCC1(n2cc(-c3ncnc4[nH]ccc34)cn2)CN(C2CCN(C(=O)C3CCC(F)(F)CC3)CC2)C1` [Example 100, {1-{1-[(4,4-difluorocyclohexyl)carbonyl]piperidin-4-yl}-3-[4-(7H-pyrrolo[2,3-d]pyrimidin-4-yl)-1H-pyrazol-1-yl]azetidin-3-yl}acetonitrile], the “IC50 Ratio JAK2/JAK1” value amounted to 6.6.

As to `N#CCC1(n2cc(-c3ncnc4[nH]ccc34)cn2)CN(C2CCN(C(=O)C3CCCC3)CC2)C1` [Example 101, {1-[1-(cyclopentylcarbonyl)piperidin-4-yl]-3-[4-(7H-pyrrolo[2,3-d]pyrimidin-4-yl)-1H-pyrazol-1-yl]azetidin-3-yl}acetonitrile], the “IC50 Ratio JAK2/JAK1” value stood at 8.3.

For `N#CCC1(n2cc(-c3ncnc4[nH]ccc34)cn2)CN(C2CCN(C(=O)C3CCC(c4ccc(Cl)cc4)CC3)CC2)C1` (centres unmarked) [Example 105, {1-(1-{[4-(4-chlorophenyl)cyclohexyl]carbonyl}piperidin-4-yl)-3-[4-(7H-pyrrolo[2,3-d]pyrimidin-4-yl)-1H-pyrazol-1-yl]azetidin-3-yl}acetonitrile], the “IC50 Ratio JAK2/JAK1” value was found to be 7.2.

As for `N#CCC1(n2cc(-c3ncnc4[nH]ccc34)cn2)CN(C2CCN(C(=O)Cc3ccccc3)CC2)C1` [Example 109, {1-[1-(phenylacetyl)piperidin-4-yl]-3-[4-(7H-pyrrolo[2,3-d]pyrimidin-4-yl)-1H-pyrazol-1-yl]azetidin-3-yl} acetonitrile], the “IC50 Ratio JAK2/JAK1” value was 1.1.

For the compound `N#CCC1(n2cc(-c3ncnc4[nH]ccc34)cn2)CN(C2CCN(C(=O)C3(c4ccccc4)CC3)CC2)C1` [Example 110, {1-{1-[(1-phenylcyclopropyl)carbonyl]piperidin-4-yl}-3-[4-(7H-pyrrolo[2,3-d]pyrimidin-4-yl)-1H-pyrazol-1-yl]azetidin-3-yl}acetonitrile], the “IC50 Ratio JAK2/JAK1” value was 1.6.

Consider `N#CCC1(n2cc(-c3ncnc4[nH]ccc34)cn2)CN(C2CCN(C(=O)C3(c4ccc(Cl)cc4)CC3)CC2)C1` [Example 111, {1-(1-{[1-(4-chlorophenyl)cyclopropyl]carbonyl}piperidin-4-yl)-3-[4-(7H-pyrrolo [2,3-d]pyrimidin-4-yl)-1H-pyrazol-1-yl]azetidin-3-yl}acetonitrile], for which the “IC50 Ratio JAK2/JAK1” value turned out to be 2.6.

`N#CCC1(n2cc(-c3ncnc4[nH]ccc34)cn2)CN(C2CCN(C(=O)Cc3c(Cl)cccc3Cl)CC2)C1` [Example 112, {1-{1-[(2,6-dichlorophenyl)acetyl]piperidin-4-yl}-3-[4-(7H-pyrrolo[2,3-d]pyrimidin-4-yl)-1H-pyrazol-1-yl]azetidin-3-yl} acetonitrile]: the “IC50 Ratio JAK2/JAK1” value was found to be 8.2.

In the case of `Cc1cc(C)c(CC(=O)N2CCC(N3CC(CC#N)(n4cc(-c5ncnc6[nH]ccc56)cn4)C3)CC2)c(C)c1` [Example 113, {1-[1-(mesitylacetyl)piperidin-4-yl]-3-[4-(7H-pyrrolo[2,3-d]pyrimidin-4-yl)-1H-pyrazol-1-yl]azetidin-3-yl} acetonitrile], the “IC50 Ratio JAK2/JAK1” value is 4.2.

The values are drawn from patent publication US10695337B2, “Piperidin-4-yl azetidine derivatives as JAK1 inhibitors” (Incyte Corporation, priority 2010, dated 2020).
